Reference: US20040259942A1, “Modulation of stat activity” (priority 2001, published 2004)

Columns and labels:
MDA-MB-468 cells = assay: DAPI staining, confocal microscopy (apoptosis); type: cell-based, human; conditions: growing cells treated; 100 μM (FIG. 17)
Description: OdDHL induces apoptosis of BC cells (a) MCF-7 cells were cultured in full medium alone or in the presence of 1001M OdDHL or 100 μM OHHL. […] Left-hand panels show DAPI, right-hand panels show the corresponding phase contrast and middle panels the image overlays. (b) MDA-MB-468 cells were cultured in full medium alone or in the presence of 100 μM OdDHL or 100 μM OHHL. […] (c) BR293, MCF-7 and MDA-MD-468 cells were cultured in full medium alone (lanes 1, 3, 5) or in the presence of 100 μM OdDHL (lanes 2, 4, 6) or 400 μM etoposide (lane 7). After 18 hours cells were lysed and analysed for PARP cleavage by Western blotting with an anti-PARP antibody. Full length PARP is labelled and the lower arrow indicates the major caspase cleavage fragment.

STAT1 and 3 = assay: STAT complex formation in serum-starved cells treated with AHL alone (EMSA); type: cell-based, human; conditions: serum-starved BR293 cells; up to 2 h
From the text: Cells were lysed and the DNA-binding activity of STAT1 and 3 was examined by EMSA.

STAT3 = assay: Serum-induced STAT3 tyrosine phosphorylation (immunoblot); type: cell-based, human
Description: (§1) For immunoprecipitation and immunoblotting experiments, cells were grown to confluence in 10 cm dishes and maintained in full medium or starved in serum-free medium overnight before the application of appropriate stimuli. Lysates were prepared in TBSN buffer (50 mM Tris-HCl pH7.5, 150 mM NaCl, 1 mM EDTA, 1% NP-40) supplemented with protease inhibitors (1 mM Na3 VO4, 10 mM Na4P2O7, 10 mM NaF, 5 mM EGTA, 10 mM Benzamidine, 0.2 mM PMSF and 1 μg/ml each of leupeptin, aprotinin, pepstatin). Lysates were cleared by centrifugation at 16,000×g for 10 minutes and used directly for immunoprecipitations or stored at −20° C. for further use.
Equal amounts of lysates were incubated with the appropriate antibody for 2 hours at 4° C.
(§2) Immune complexes were then allowed to bind to protein A-Sepharose beads for 1 hour at 4° C. and collected by centrifugation. Immunoprecipitates were washed three times in 100 mM Tris-HC1 pH 7.5, 100 nM NaCl, 1 mM EDTA, 0.1 mM PMSF, 0.5% NP-40. Thereafter, samples were taken up in sodium dodecyl sulphate (SDS) loading buffer and boiled for 5 min.
Samples were separated by electrophoresis through 6% polyacrylamide-SDS gels. Proteins were then transferred to polyvinylidene difluoride (PVDF) membranes with a semi-dry electroblotting apparatus. The membranes were incubated with appropriate primary antibodies at room temperature for 1 hour or 4° C. overnight according to suppliers' instructions, washed and stained with horseradish peroxidase-coupled secondary antibodies. The membranes were developed with an enhanced chemiluminescence kit (Amersham).
as §1, with “Na3VO4,” for “Na3 VO4,”, “aprotinin and” for “aprotinin,”, “use. AG490 was purchased from Sigma; PD153035 was provided by Glaxo-Smith-Kline and PD168393 was purchased from Calbiochem.” for “use.”
as §2, with “Equal amounts of lysates were incubated with the appropriate antibody for 2 hours at 4° C. Immune” for “Immune”, “in 10” for “in 100”, “mM Tris-HCl” for “mM Tris-HC1”, “100 mM” for “100 nM”

ERKs = assay: ERK phosphorylation (Western blotting); type: cell-based, human; conditions: for activation of ERKs by TPA (phosphorylation of ERK½): BR293 cells; for activation of ERKs in response to serum: result not shown
Description: ERKs are unaffected by OdDHL (a) BR293 cells were serum-starved (lane 1) or starved and stimulated with TPA for 30 min alone (lane 2) or in the presence of increasing concentrations of OdDHL (lanes 3-6) or 100 μM OHHL (lane 7). Cell lysates were prepared and analysed by Western blotting for ERK phosphorylation with an antibody specific for phospho-ERK½ (upper panel) and for ERK content with an antibody against ERKs (lower panel). (b) BR293 cells were serum-starved (lane 1) or starved and stimulated with Anisomycin for 30 min alone (lane 2) or in the presence of increasing concentrations of OdDHL (lanes 3-6) or 100 μM OHHL (lane 7). Cell lysates were prepared and analysed by Western blotting for JNK/SAPK phosphorylation with an antibody specific for phospho-JNKs (upper panel) and for SAPK/JNK content with an antibody against JNKs (lower panel). (c) BR293 cells were treated as described in (b) and lysates were analysed by Western blotting for p38^MAPK phosphorylation with an antibody specific for phospho-p38 (upper panel) and for p38 content with an antibody against p38 (lower panel).

murine STAT3 = assay: STAT3-dependent luciferase reporter (SIE2-luc) in transfected COS-1 cells; type: cell-based; conditions: COS-1 cells transfected with murine STAT3
Description: (c) COS-1 cells were transfected with an expression vector for STAT3, a STAT3-responsive luciferase reporter (SIE2-luc) and a control gene for β-galactosidase. […] After 6 hours cells were harvsted and reporter gene expression analysed. Results are normalised against β-galactosidase values and expressed as averages +/−SD (n=3).

BR293 cells = assay: DAPI staining, fluorescence microscopy (apoptosis); type: cell-based, human; conditions: full medium (10% FCS); 24 h
Description: OdDHL blocks BC cell oroliferation and induces apoptosis. BR293 cells were grown in full medium (10% FCS) in the absence or presence of OdDHL or the control OHHL. After 24 h, cell were harvested, stained with DAPI and examined by fluorescence microscopy.

Compound | nuclear integrity by DAPI staining (MDA-MB-468 cells) | STAT complex formation by AHL alone (STAT1 and 3) | effect on serum-induced STAT3 tyrosine phosphorylation (STAT3; BR293 cells, 100 μM) | activation of ERKs by TPA (phosphorylation of ERK½) (ERKs) | activation of ERKs in response to serum (ERKs) | EGF-stimulated STAT3-dependent reporter gene expression, effect of co-treatment (murine STAT3) | nuclear morphology / viability after DAPI staining (BR293 cells) | STAT3 phosphorylation at sub-inhibitory concentration (STAT3; BR293 cells, 50 μM OdDHL) | delayed STAT3 phosphorylation in response to serum (STAT3; BR293 cells, 100 μM pretreatment (FIG. 18c)) | serum-induced phosphorylation of STAT3 (STAT3; BR293 cells, pre-incubation (FIG. 11 upper panel)) | concentration at which serum-induced STAT3 tyrosine phosphorylation was inhibited (STAT3; BR293 cells, pretreatment 15 minutes with increasing concentrations) [µM] | threshold concentration for inactivation of serum-induced STAT3 phosphorylation (STAT3; FIG. 15)
CCCC(=O)CC(=O)N[C@H]1CCOC1=O [OHHL, N-(3-oxohexanoyl)-L-homoserine lactone, reference compound] | unaffected | did not induce STAT complex formation | only a slight effect | Neither OdDHL nor OHHL had any effect | Neither OdDHL nor OHHL had any effect | had no effect | remained viable | – | – | – | – | –
CCCCCCCCCC(=O)CC(=O)N[C@H]1CCOC1=O [OdDHL, N-(3-oxo-dodecanoyl)-L-homoserine lactone] | nuclear disruption | did not induce STAT complex formation | – | Neither OdDHL nor OHHL had any effect | Neither OdDHL nor OHHL had any effect | augmented | induced DNA condensation and nuclear fragmentation | small increase | prevented the delayed STAT3 phosphorylation in response to serum | blocked the serum-induced phosphorylation of STAT3 | 100 | above 50 μM
